From patent US20090170758A1, “COMPOSITIONS COMPRISING PULMONARY SURFACTANTS AND A POLYMYXIN HAVING IMPROVED SURFACE PROPERTIES” (Chiesi Farmaceutici S.p.A., priority 2002, published 2009)

Experiment: Spreading experiments on a modified Wilhelmy balance
Format: physicochemical
Settings: Curosurf diluted to 20 mg/ml, 10 microl
Description: Experiments were performed at 37° C. using a modified Wilhelmy balance with a surface area of 20 cm^2. Standard amounts of Curosurf at various concentrations (10-80 mg/ml) were applied onto a hypophase of saline, approximately 40 mm from the dipping plate. In some experiments, CaCl2 (2 mM), dextran (30 mg/ml), or polymyxin B (2% on the weight of the surfactant, i.e. 0.4 mg/ml) was added to diluted surfactant material (20 mg/ml). The effect of albumin at low concentration (0.1 mg/ml) added to the hypophase was also investigated. Surface tension, measured 1 sec after administration of the sample was used as a parameter combining spreading and film formation by adsorption from the hypophase.

[1] = agent added to surfactant (CaCl2 2 mM, dextran 30 mg/ml, polymyxin B 2% = 0.4 mg/ml), no albumin
[2] = agent added to surfactant, albumin 0.1 mg/ml added to the hypophase

Compound	Surface tension at 1 sec (mN/m) [1]	Surface tension at 1 sec (mN/m) [2]
[Ca+2].[Cl-].[Cl-] [CaCl2]	52 mN/m	70 mN/m
polymyxin B	28 mN/m	45 mN/m
